Experimental data taken from US12655116B2, “Substituted isophthalic acid diamides” (Bayer Aktiengesellschaft, priority 2020, dated 2026).

Columns and labels:
AMARE [1] = test: Post-emergence herbicidal action against AMARE; format: in vivo, Amaranthus retroflexus; details: 20 g/ha, visual assessment about 3 weeks after treatment, 100% = plants have died, 0% = like control plants
How it was run: (§1)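 A WP or EC formulation diluted in water with 0.2% wetting agent was sprayed at 600 to 800 l/ha onto one-leaf-stage plants grown in sandy loam. About 3 weeks later, action was rated visually in percent, 100% being dead plants.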

ABUTH [2] = test: Pre-emergence herbicidal action against ABUTH; format: in vivo, Abutilon theophrasti
How it was run: (§2)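 Greenhouse pots of sandy loam held seeds covered with soil, onto which the compound was applied before emergence. An aqueous suspension or emulsion of WP or EC was used at 600 to 800 l/ha with 0.2% wetting agent. Percent damage was judged visually at 3 weeks.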

VIOTR [3] = test: Post-emergence herbicidal action against VIOTR; format: in vivo, Viola tricolor; details: 20 g/ha
How it was run: as §1

VERPE = test: Post-emergence herbicidal action against VERPE; format: in vivo, Veronica persica
How it was run: as §1

AVEFA = test: Pre-emergence herbicidal action against AVEFA; format: in vivo, Avena fatua; details: 80 g/ha, pre-emergence
How it was run: as §2

PHBPU [4] = test: Pre-emergence herbicidal action against PHBPU; format: in vivo, Pharbitis purpurea; details: dosage 80 g/ha
How it was run: as §2

ALOMY [5] = test: Pre-emergence herbicidal action against ALOMY; format: in vivo, Alopecurus myosuroides; details: pre-emergence
How it was run: as §2

SETVI [6] = test: Post-emergence herbicidal action against SETVI; format: in vivo, Setaria viridis
How it was run: as §1

VIOTR [7] = test: Pre-emergence herbicidal action against VIOTR; format: in vivo, Viola tricolor
How it was run: as §2

MATIN [8] = test: Pre-emergence herbicidal action against MATIN; format: in vivo, Matricaria inodora
How it was run: as §2

ABUTH [9] = test: Post-emergence herbicidal action against ABUTH; format: in vivo, Abutilon theophrasti; details: Abutilon theophrasti, 504 h, visual assessment about 3 weeks after treatment vs untreated controls
How it was run: as §1

ECHCG [10] = test: Post-emergence herbicidal action against ECHCG; format: in vivo, Echinochloa crus-galli
How it was run: as §1

SETVI [11] = test: Pre-emergence herbicidal action against SETVI; format: in vivo, Setaria viridis
How it was run: as §2

ALOMY [12] = test: Post-emergence herbicidal action against ALOMY; format: in vivo, Alopecurus myosuroides; details: dosage 20 g/ha, visual assessment about 3 weeks after treatment vs untreated controls
How it was run: as §1

LOLRI = test: Pre-emergence herbicidal action against LOLRI; format: in vivo, Lolium rigidum; details: 80 g/ha
How it was run: as §2

AMARE [13] = test: Pre-emergence herbicidal action against AMARE; format: in vivo, Amaranthus retroflexus
How it was run: as §2

ECHCG [14] = test: Pre-emergence herbicidal action against ECHCG; format: in vivo, Echinochloa crus-galli; details: 80 g/ha
How it was run: as §2

DIGSA = test: Pre-emergence herbicidal action against DIGSA; format: in vivo, Digitaria sanguinalis; details: dosage 80 g/ha
How it was run: as §2

PHBPU [15] = test: Post-emergence herbicidal action against PHBPU; format: in vivo, Pharbitis purpurea; details: dosage 20 g/ha
How it was run: as §1

MATIN [16] = test: Post-emergence herbicidal action against MATIN; format: in vivo, Matricaria inodora; details: dosage 20 g/ha
How it was run: as §1

[17] = 80 g/ha, scored visually after 3 weeks vs untreated controls (100% = plants have died, 0% = like control plants)

CC(C)NC(=O)c1c(Br)ccc(C(=O)Nc2nnnn2C)c1Cl [Example 1-185]
pest or weed control at 20 g/ha (AMARE [1]; Amaranthus retroflexus, 504 h): 100% | pest or weed control at 80 g/ha (ABUTH [2]; Abutilon theophrasti, 504 h, 80 g/ha, scored visually after 3 weeks vs untreated controls (100% = plants have died, 0% = like control plants)): 100% | pest or weed control at 20 g/ha (ABUTH [2]; Abutilon theophrasti, 504 h, dosage 20 g/ha, scored visually after 3 weeks vs untreated controls, 100% = plants have died, 0% = like control plants, read-out: Pre-emergence action against ABUTH (herbicidal activity in percent)): 100% | pest or weed control at 20 g/ha (VIOTR [3]; Viola tricolor, 504 h): 80% | pest or weed control at 20 g/ha (VERPE; Veronica persica, 504 h, 20 g/ha): 80% | pest or weed control at 80 g/ha (AVEFA; Avena fatua, 504 h): 100% | pest or weed control at 80 g/ha (PHBPU [4]; Ipomoea purpurea, 504 h): 80% | pest or weed control at 80 g/ha (ALOMY [5]; Alopecurus myosuroides, 504 h, 80 g/ha, scored visually after 3 weeks vs untreated controls (100% = plants have died, 0% = like control plants)): 100% | pest or weed control at 20 g/ha (ALOMY [5]; Alopecurus myosuroides, 504 h, 20 g/ha, scored visually after 3 weeks, 100% = plants have died, 0% = like control plants): 90% | pest or weed control at 5 g/ha (SETVI [6]; Setaria viridis, 504 h, dosage 5 g/ha): 80% | pest or weed control at 20 g/ha (SETVI [6]; Setaria viridis, 504 h, dosage 20 g/ha): 100% | pest or weed control at 20 g/ha (VIOTR [7]; Viola tricolor, 504 h, dosage 20 g/ha): 80% | pest or weed control at 80 g/ha (VIOTR [7]; Viola tricolor, 504 h, dosage 80 g/ha): 100% | pest or weed control at 20 g/ha (MATIN [8]; Tripleurospermum inodorum, 504 h, dosage 20 g/ha): 100% | pest or weed control at 80 g/ha (MATIN [8]; Tripleurospermum inodorum, 504 h, dosage 80 g/ha): 100% | pest or weed control at 5 g/ha (ABUTH [9]; dosage 5 g/ha): 80% | pest or weed control at 20 g/ha (ABUTH [9]; dosage 20 g/ha): 90% | pest or weed control at 5 g/ha (ECHCG [10]; Echinochloa crus-galli, 504 h, dosage 5 g/ha): 90% | pest or weed control at 20 g/ha (ECHCG [10]; Echinochloa crus-galli, 504 h, dosage 20 g/ha): 100% | pest or weed control at 80 g/ha (SETVI [11]; Setaria viridis, 504 h, dosage 80 g/ha): 100% | pest or weed control at 20 g/ha (ALOMY [12]; Alopecurus myosuroides, 504 h): 90% | pest or weed control at 80 g/ha (LOLRI; Lolium rigidum, 504 h): 90% | pest or weed control at 20 g/ha (AMARE [13]; Amaranthus retroflexus, 504 h, 20 g/ha, scored visually after 3 weeks vs untreated controls, 100% = plants have died, 0% = like control plants): 100% | pest or weed control at 80 g/ha (AMARE [13]; Amaranthus retroflexus, 504 h, 80 g/ha, scored visually after 3 weeks vs untreated controls, 100% = plants have died, 0% = like control plants): 100% | pest or weed control at 80 g/ha (ECHCG [14]; Echinochloa crus-galli, 504 h): 100%

CCn1nnnc1NC(=O)c1ccc(C(F)(F)F)c(C(=O)NCC(F)(F)F)c1Cl [Example 2-133]
Post-emergence action at 20 g/ha against AMARE in % (AMARE [1]): 90% | Pre-emergence action against ABUTH (herbicidal activity) (ABUTH [2]; [17]): 100% | Post-emergence action against VIOTR in % (VIOTR [3]): 80% | Post-emergence action against VERPE in % (VERPE; 5 g/ha): 80% | Post-emergence action against VERPE in % (VERPE; 20 g/ha): 80% | Pre-emergence action against AVEFA in % (AVEFA): 90% | Pre-emergence action against PHBPU in % (PHBPU [4]): 80% | Pre-emergence action against ALOMY (herbicidal activity) (ALOMY [5]; [17]): 90% | Post-emergence action against SETVI in % (SETVI [6]; dosage 5 g/ha): 80% | Post-emergence action against SETVI in % (SETVI [6]; dosage 20 g/ha): 90% | Pre-emergence action against VIOTR in % (VIOTR [7]; dosage 80 g/ha): 90% | Pre-emergence action against MATIN in % (MATIN [8]; dosage 20 g/ha): 90% | Pre-emergence action against MATIN in % (MATIN [8]; dosage 80 g/ha): 100% | Post-emergence action against ECHCG in % (ECHCG [10]; dosage 20 g/ha): 80% | Pre-emergence action against SETVI in % (SETVI [11]; dosage 20 g/ha): 100% | Pre-emergence action against SETVI in % (SETVI [11]; dosage 80 g/ha): 100% | Post-emergence action against ALOMY in % (ALOMY [12]): 80% | Pre-emergence action against DIGSA in % (DIGSA): 90% | Pre-emergence action against LOLRI in % (LOLRI): 80% | Post-emergence action against PHBPU in % (PHBPU [15]): 80% | Pre-emergence action against AMARE in % (AMARE [13]; 20 g/ha, scored visually after 3 weeks vs untreated controls, 100% = plants have died, 0% = like control plants): 90% | Pre-emergence action against AMARE in % (AMARE [13]; [17]): 100% | Pre-emergence action against ECHCG in % (ECHCG [14]): 100% | Post-emergence action against MATIN in % (MATIN [16]): 90%
